# Molecular target: T1, Human Factor D (Homo sapiens, UniProt P00746)
# T1 construct: purified from human serum; purchased Complement Technology, Inc; host or cells: human serum (natural protein, not recombinant)
# Assay: Human Factor D Assay
# Format: biochemical
# Conditions: not given
# Procedure: Example 8. Human Factor D Assay
# Human Factor D (purified from human serum, Complement Technology, Inc.) at 80 nM final concentration is incubated with test compound at various concentrations for 5 minutes at room temperature in 50 mM Tris, 1M NaCl, pH 7.5. A synthetic substrate Z-L-Lys-SBzl and DTNB (Ellman's reagent) are added to final concentrations of 100 μM each. Absorbance at 405 nm (A405) is recorded at 30 second intervals for 30 minutes using a microplate spectrophotometer. IC50 values are calculated by nonlinear regression of complement Factor D reaction rates as a function of test compound concentration.
# T1 sequence (P00746 26-253): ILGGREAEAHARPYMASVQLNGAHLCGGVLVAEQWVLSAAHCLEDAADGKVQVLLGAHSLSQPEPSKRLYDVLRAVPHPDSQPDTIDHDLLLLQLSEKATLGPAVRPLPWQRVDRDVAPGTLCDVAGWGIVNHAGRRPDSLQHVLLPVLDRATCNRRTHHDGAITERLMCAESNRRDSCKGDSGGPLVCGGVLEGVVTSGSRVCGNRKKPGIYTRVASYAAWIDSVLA
row,Structure (SMILES),IC50 [µM]
1,CC(=O)c1cn(CC(=O)N2C[C@H](F)C[C@H]2C(=O)NCc2cccc(Cl)c2F)c2cc(OCCC3CC3)ccc12 [Cmp 5],< 1
2,CC(=O)c1cn(CC(=O)N2C[C@H](F)C[C@H]2C(=O)Nc2cccc(Br)n2)c2ccc(OCCSCC3(C)COC3)cc12 [Cmp 5],< 1
3,"CC(=O)c1cn(CC(=O)N2C[C@H](F)C[C@H]2C(=O)NCc2cccc(Cl)c2F)c2cc(OCP(=O)(O)OCOC(=O)OC(C)C)ccc12 [Compound 13, (((((3-Acetyl-1-(2-((2S,4R)-2-((3-chloro-2-fluorobenzyl)carbamoyl)-4-fluoropyrrolidin-1-yl)-2-oxoethyl)-1H-indol-6-yl)oxy)methyl)(hydroxy)phosphoryl)oxy)methyl isopropyl carbonate]",< 1
4,"CC(=O)c1cn(CC(=O)N2C[C@H](F)C[C@H]2C(=O)NCc2cccc(Cl)c2F)c2cc(OCS(=O)(=O)NC(C)(C)C)ccc12 [Compound 15, (2S,4R)-1-(2-(3-Acetyl-6-((N-(tert-butyl)sulfamoyl)methoxy)-1H-indol-1-yl)acetyl)-N-(3-chloro-2-fluorobenzyl)-4-fluoropyrrolidine-2-carboxamide]",< 1
5,"CCP(=O)(O)COc1ccc2c(C(C)=O)cn(CC(=O)N3C[C@H](F)C[C@H]3C(=O)NCc3cccc(Cl)c3F)c2c1 [Compound 16, (((3-Acetyl-1-(2-((2S,4R)-2-((3-chloro-2-fluorobenzyl)carbamoyl)-4-fluoropyrrolidin-1-yl)-2-oxoethyl)-1H-indol-6-yl)oxy)methyl)(ethyl)phosphinic Acid]",< 1
6,"CC(=O)c1cn(CC(=O)N2C[C@H](F)C[C@H]2C(=O)NCc2cccc(Cl)c2F)c2cc(OCP(=O)(OCOC(=O)C(C)(C)C)OCOC(=O)C(C)(C)C)ccc12 [Compound 21, (((((3-Acetyl-1-(2-((2S,4R)-2-((3-chloro-2-fluorobenzyl)carbamoyl)-4-fluoropyrrolidin-1-yl)-2-oxoethyl)-1H-indol-6-yl)oxy)methyl)phosphoryl)bis(oxy))bis(methylene) bis(2,2-dimethylpropanoate)]",< 1
7,"CC(=O)c1cn(CC(=O)N2C[C@H](F)C[C@H]2C(=O)NCc2cccc(Cl)c2F)c2cc(OCP(=O)(N[C@@H](C)C(=O)OC(C)C)N[C@@H](C)C(=O)OC(C)C)ccc12 [Compound 24, (2S,2′S)-isopropyl-2,2′-(((3-acetyl-1-(2-((2S,4R)-2-(3-chloro-2-fluorobenzylcarbamoyl)-4-fluoropyrrolidin-1-yl)-2-oxoethyl)-1H-indol-6-yloxy)methyl)phosphoryl)bis(azanediyl) dipropanoate]",< 1

# Same assay, conditions: Table 1; Human Factor D 80 nM, substrate Z-L-Lys-SBzl; read-out: IC50
row,Structure (SMILES),IC50 [µM]
1,CC(=O)c1cn(CC(=O)N2C[C@H](F)C[C@H]2C(=O)Nc2cccc(OC(F)(F)F)c2F)c2cc(OCC3CC3)ccc12 [Cmp 4],< 1
2,"CC(=O)c1cn(CC(=O)N2C[C@H](F)C[C@H]2C(=O)NCc2cccc(Cl)c2F)c2cc(OCC3CC3)ccc12 [Compound 1, (2S,4R)-1-(2-(3-acetyl-6-(cyclopropylmethoxy)-1H-indol-1-yl)acetyl)-N-(3-chloro-2-fluorobenzyl)-4-fluoropyrrolidine-2-carboxamide]",< 1
3,"CC(=O)c1cn(CC(=O)N2C[C@H](F)C[C@H]2C(=O)NCc2cccc(Cl)c2F)c2cc(OS(=O)(=O)C(F)(F)F)ccc12 [Compound 2, 3-acetyl-1-(2-((2S,4R)-2-(3-chloro-2-fluorobenzylcarbamoyl)-4-fluoropyrrolidin-1-yl)-2-oxoethyl)-1H-indol-6-yl trifluoromethanesulfonate]",< 1
4,"CC(=O)c1cn(CC(=O)N2[C@@H]3C[C@@H]3C[C@H]2C(=O)NCc2cccc(Cl)c2F)c2cc(OCC3CC3)ccc12 [Compound 3, (1R,3S,5R)-2-(2-(3-acetyl-6-(cyclopropylmethoxy)-1H-indol-1-yl)acetyl)-N-(3-chloro-2-fluorobenzyl)-2-azabicyclo[3.1.0]hexane-3-carboxamide]",< 1
5,"CCOP(=O)(COc1ccc2c(C(C)=O)cn(CC(=O)N3C[C@H](F)C[C@H]3C(=O)NCc3cccc(Cl)c3F)c2c1)OCC [Compound 7, Diethyl(((3-acetyl-1-(2-((2S,4R)-2-((3-chloro-2-fluorobenzyl)carbamoyl)-4-fluoropyrrolidin-1-yl)-2-oxoethyl)-1H-indol-6-yl)oxy)methyl)phosphonate]",< 1
6,"CC(=O)c1cn(CC(=O)N2C[C@H](F)C[C@H]2C(=O)NCc2cccc(Cl)c2F)c2cc(OCP(=O)(O)O)ccc12 [Compound 8, (((3-Acetyl-1-(2-((2S,4R)-2-((3-chloro-2-fluorobenzyl)carbamoyl)-4-fluoropyrrolidin-1-yl)-2-oxoethyl)-1H-indol-6-yl)oxy)methyl)phosphonic acid]",< 1
7,"CC(=O)c1cn(CC(=O)N2C[C@H](F)C[C@H]2C(=O)NCc2cccc(Cl)c2F)c2ccc(OS(=O)(=O)C(F)(F)F)cc12 [Compound 9, 3-acetyl-1-(2-((2S,4R)-2-(3-chloro-2-fluorobenzylcarbamoyl)-4-fluoropyrrolidin-1-yl)-2-oxoethyl)-1H-indol-5-yl trifluoromethanesulfonate]",< 1
8,"CCOP(=O)(COc1ccc2c(c1)c(C(C)=O)cn2CC(=O)N1C[C@H](F)C[C@H]1C(=O)NCc1cccc(Cl)c1F)OCC [Compound 10, Diethyl(((3-acetyl-1-(2-((2S,4R)-2-((3-chloro-2-fluorobenzyl)carbamoyl)-4-fluoropyrrolidin-1-yl)-2-oxoethyl)-1H-indol-5-yl)oxy)methyl)phosphonate]",< 1
9,"CC(=O)c1cn(CC(=O)N2C[C@H](F)C[C@H]2C(=O)NCc2cccc(Cl)c2F)c2ccc(OCP(=O)(O)O)cc12 [Compound 11, (((3-acetyl-1-(2-((2S,4R)-2-((3-chloro-2-fluorobenzyl)carbamoyl)-4-fluoropyrrolidin-1-yl)-2-oxoethyl)-1H-indol-5-yl)oxy)methyl)phosphonic acid]",< 1
10,"CC(=O)c1cn(CC(=O)N2C[C@H](F)C[C@H]2C(=O)NCc2cccc(Cl)c2F)c2cc(OCP(=O)(OCOC(=O)OC(C)C)OCOC(=O)OC(C)C)ccc12 [Compound 12, (((3-acetyl-1-(2-((2S,4R)-2-(3-chloro-2-fluorobenzylcarbamoyl)-4-fluoropyrrolidin-1-yl)-2-oxoethyl)-1H-indol-6-yloxy)methyl)phosphoryl)bis(oxy)bis(methylene) isopropyl dicarbonate]",< 1
11,"CCOP(=O)(CC)COc1ccc2c(C(C)=O)cn(CC(=O)N3C[C@H](F)C[C@H]3C(=O)NCc3cccc(Cl)c3F)c2c1 (stereo partly drawn) [Compound 14, Ethyl (((3-acetyl-1-(2-((2S,4R)-2-((3-chloro-2-fluorobenzyl)carbamoyl)-4-fluoropyrrolidin-1-yl)-2-oxoethyl)-1H-indol-6-yl)oxy)methyl)(ethyl)phosphinate]",< 1
12,"CC(=O)c1cn(CC(=O)N2C[C@H](F)C[C@H]2C(=O)NCc2cccc(Cl)c2F)c2cc(OCS(N)(=O)=O)ccc12 [Compound 17, (2S,4R)-1-(2-(3-acetyl-6-(sulfamoylmethoxy)-1H-indol-1-yl)acetyl)-N-(3-chloro-2-fluorobenzyl)-4-fluoropyrrolidine-2-carboxamide]",< 1
13,"CCOP(=O)(COc1ccc2c(C(C)=O)cn(CC(=O)N3C[C@H](F)C[C@H]3C(=O)N[C@H](C)c3cccc(Cl)c3F)c2c1)OCC [Compound 18, diethyl (3-acetyl-1-(2-((2S,4R)-2-((R)-1-(3-chloro-2-fluorophenyl)ethylcarbamoyl)-4-fluoropyrrolidin-1-yl)-2-oxoethyl)-1H-indol-6-yloxy)methylphosphonate]",< 1
14,"CC(=O)c1cn(CC(=O)N2C[C@H](F)C[C@H]2C(=O)N[C@H](C)c2cccc(Cl)c2F)c2cc(OCP(=O)(O)O)ccc12 [Compound 19, (3-acetyl-1-(2-((2S,4R)-2-((R)-1-(3-chloro-2-fluorophenyl)ethylcarbamoyl)-4-fluoropyrrolidin-1-yl)-2-oxoethyl)-1H-indol-6-yloxy)methylphosphonic acid]",< 1
15,"CCCCCCCCCCCCCCCCOCCCOP(=O)(O)COc1ccc2c(C(C)=O)cn(CC(=O)N3C[C@H](F)C[C@H]3C(=O)NCc3cccc(Cl)c3F)c2c1 [Compound 20, 3-(hexadecyloxy)propyl hydrogen (3-acetyl-1-(2-((2S,4R)-2-(3-chloro-2-fluorobenzylcarbamoyl)-4-fluoropyrrolidin-1-yl)-2-oxoethyl)-1H-indol-6-yloxy)methylphosphonate]",< 1
16,"CC(=O)c1cn(CC(=O)N2C[C@H](F)C[C@H]2CNS(=O)(=O)c2cccc(Cl)c2F)c2cc(OCP(=O)(O)O)ccc12 [Compound 22, (3-acetyl-1-(2-((2S,4R)-2-((3-chloro-2-fluorophenylsulfonamido)methyl)-4-fluoropyrrolidin-1-yl)-2-oxoethyl)-1H-indol-6-yloxy)methylphosphonic acid]",< 1
17,"CCC(=O)OC(OP(=O)(COc1ccc2c(C(C)=O)cn(CC(=O)N3C[C@H](F)C[C@H]3C(=O)NCc3cccc(Cl)c3F)c2c1)OC(OC(=O)CC)C(C)C)C(C)C (stereo partly drawn) [Compound 23, 1,1′-(((3-acetyl-1-(2-((2S,4R)-2-(3-chloro-2-fluorobenzylcarbamoyl)-4-fluoropyrrolidin-1-yl)-2-oxoethyl)-1H-indol-6-yloxy)methyl)phosphoryl)bis(oxy)bis(2-methylpropane-1,1-diyl) dipropionate]",< 1
18,"CC(=O)c1cn(CC(=O)N2C[C@H](F)C[C@H]2C(=O)Nc2ccc(OC(F)(F)F)c(F)c2)c2cc(OCP(=O)(O)O)ccc12 [Compound 25, (3-acetyl-1-(2-((2S,4R)-4-fluoro-2-(3-fluoro-4-(trifluoromethoxy)phenylcarbamoyl)pyrrolidin-1-yl)-2-oxoethyl)-1H-indol-6-yloxy)methylphosphonic acid]",< 1

# Same assay, conditions: Table 3; Human Factor D 80 nM, substrate Z-L-Lys-SBzl; read-out: (IC50 (Stars))
row,Structure (SMILES),IC50 [µM]
1,CC(=O)c1cn(CC(=O)N2C[C@H](F)C[C@H]2C(=O)Nc2cccc(Br)n2)c2ccc(OCC[S+]([O-])CC3(C)COC3)cc12 (some centres unmarked) [Cmp 4],< 1

# — patent publication US10385097B2, “Ether compounds for treatment of medical disorders” (Achillion Pharmaceuticals, Inc., priority 2015, dated 2019)
